Values joined by “and” are separate entries in the source; they are usually repeats but may differ in a detail not shown here. Equal entries are not always repeated. Toxic doses and inconclusive results are not listed. How the source made its calls: active means survival T/C of 150% or more; inactive means T/C below 125% in these data.
Tested on: P388 leukemia ip, CD2F1 mice, survival T/C
Assay: NCI In Vivo Anticancer Drug Screen. Data for tumor model P388 Leukemia (intraperitoneal) in CD2F1 (CDF1) mice
Conditions: endpoint: median survival time, higher = longer survival
In short: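 Mice carrying the transplanted tumor received test compound or vehicle. Survival was recorded in each group, and the value is the treated-group measurement divided by that of the vehicle-treated control group.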

[1] = dose: 50.0 mg/kg/injection, schedule: Q01DX009 (ip), vehicle: Klucel (hydroxypropylcellulose) (HPC)
[2] = dose: 100.0 mg/kg/injection, schedule: Q01DX009 (ip), vehicle: Klucel (hydroxypropylcellulose) (HPC)
[3] = dose: 60.0 mg/kg/injection, schedule: Q01DX005 (ip), vehicle: saline with Tween-80
[4] = dose: 120.0 mg/kg/injection, schedule: Q01DX005 (ip), vehicle: saline with Tween-80
[5] = dose: 240.0 mg/kg/injection, schedule: Q01DX005 (ip), vehicle: saline with Tween-80
[6] = dose: 200.0 mg/kg/injection, schedule: Q01DX009 (ip), vehicle: Klucel (hydroxypropylcellulose) (HPC)
[7] = dose: 6.25 mg/kg/injection, schedule: Q01DX009 (ip), vehicle: Klucel (hydroxypropylcellulose) (HPC)
[8] = dose: 12.5 mg/kg/injection, schedule: Q01DX009 (ip), vehicle: Klucel (hydroxypropylcellulose) (HPC)
[9] = dose: 25.0 mg/kg/injection, schedule: Q01DX009 (ip), vehicle: Klucel (hydroxypropylcellulose) (HPC)

Measured: T/C

CC(=O)OCC12C3CC(=O)OC1C(OC(=O)C=C(C)C)C1C(C)=CC(=O)C(OC(C)=O)C1(C)C2C(=O)C(OC(C)=O)C3C (configuration not stated)
inactive: dose: 0.5 mg/kg/injection, schedule: Q01DX009 (ip), vehicle: distilled water + Tween-80 100 % of control | dose: 1.0 mg/kg/injection, schedule: Q01DX009 (ip), vehicle: distilled water + Tween-80 97 % of control | dose: 2.0 mg/kg/injection, schedule: Q01DX009 (ip), vehicle: distilled water + Tween-80 102 % of control | dose: 4.0 mg/kg/injection, schedule: Q01DX009 (ip), vehicle: distilled water + Tween-80 101 % of control | dose: 8.0 mg/kg/injection, schedule: Q01DX009 (ip), vehicle: distilled water + Tween-80 102 % of control

C/C(=N\N=c1/cc(Cl)n(C)c(=O)n1C)c1ccc(Cl)cc1
inactive: [1] 102 % of control | [2] 99 % of control

Cc1cc(N=Nc2ccc(NC(=O)c3ccc(N)cc3)cc2C)ccc1N=Nc1ccc2c(O)c(N=Nc3ccc(S(=O)(=O)O)cc3)c(S(=O)(=O)O)cc2c1
inactive: dose: 12.5 mg/kg/injection, schedule: Q01DX005 (ip), vehicle: saline 100 % of control | dose: 25.0 mg/kg/injection, schedule: Q01DX005 (ip), vehicle: saline 105 % of control | dose: 50.0 mg/kg/injection, schedule: Q01DX005 (ip), vehicle: saline 105 % of control and 108 % of control | dose: 100.0 mg/kg/injection, schedule: Q01DX005 (ip), vehicle: saline 103 % of control

O=C(CCl)N1c2ccccc2Sc2c1ccc1ccccc21
inactive: dose: 3.12 mg/kg/injection, schedule: Q01DX009 (ip), vehicle: saline with Tween-80 103 % of control | dose: 6.25 mg/kg/injection, schedule: Q01DX009 (ip), vehicle: saline with Tween-80 104 % of control | dose: 6.25 mg/kg/injection, schedule: Q01DX009 (ip), vehicle: suspension in saline 100 % of control | dose: 12.5 mg/kg/injection, schedule: Q01DX009 (ip), vehicle: saline with Tween-80 120 % of control | dose: 12.5 mg/kg/injection, schedule: Q01DX009 (ip), vehicle: suspension in saline 102 % of control and 122 % of control | dose: 25.0 mg/kg/injection, schedule: Q01DX009 (ip), vehicle: saline with Tween-80 116 % of control | dose: 25.0 mg/kg/injection, schedule: Q01DX009 (ip), vehicle: suspension in saline 103 % of control and 118 % of control | dose: 50.0 mg/kg/injection, schedule: Q01DX009 (ip), vehicle: saline with Tween-80 116 % of control | dose: 50.0 mg/kg/injection, schedule: Q01DX009 (ip), vehicle: suspension in saline 103 % of control | dose: 100.0 mg/kg/injection, schedule: Q01DX009 (ip), vehicle: saline with Tween-80 110 % of control | dose: 100.0 mg/kg/injection, schedule: Q01DX009 (ip), vehicle: suspension in saline 102 % of control and 123 % of control | dose: 200.0 mg/kg/injection, schedule: Q01DX009 (ip), vehicle: suspension in saline 108 % of control

Cc1cc(/C=C/c2ccccc2)nc(/C=C/c2ccccc2)c1
inactive: [3] 104 % of control | [4] 97 % of control | [5] 100 % of control

CC(C)(C)c1ccc(C(=O)Nc2ccc(Cl)cc2Oc2ccccc2)cc1
inactive: [1] 93 % of control | [2] 97 % of control | [6] 86 % of control

CCN(CC)C(=O)N1C=CC(C)C=C1
inactive: [3] 100 % of control | [4] 101 % of control

Cc1ccc2nc(NC(=S)S)sc2c1
inactive: [7] 100 % of control | [8] 107 % of control | [9] 113 % of control | [2] 87 % of control

Cn1c(=O)oc2ccc(S(=O)(=O)Nc3ccc(Cl)cc3[N+](=O)[O-])cc21
inactive: dose: 50.0 mg/kg/injection, schedule: Q01DX005 (ip), vehicle: saline + Tween-80 + alcohol 94 % of control | dose: 100.0 mg/kg/injection, schedule: Q01DX005 (ip), vehicle: saline + Tween-80 + alcohol 101 % of control | dose: 200.0 mg/kg/injection, schedule: Q01DX005 (ip), vehicle: saline + Tween-80 + alcohol 102 % of control

CCCCCCC(O)C/C=C\CCCCCCc1c(C(=O)OC)[nH]c(=S)[nH]c1=O (configuration not stated)
inactive: [3] 94 % of control | [4] 97 % of control

CC(C)NC(=O)CN1C(=O)NC(C)(c2ccccc2)C1=O (configuration not stated)
inactive: [3] 101 % of control | [4] 95 % of control | [5] 94 % of control

O=C1c2ccccc2C(=O)c2c1ccc1ccccc21
inactive: dose: 50.0 mg/kg/injection, schedule: Q01DX005 (ip), vehicle: saline with Tween-80 99 % of control | dose: 100.0 mg/kg/injection, schedule: Q01DX005 (ip), vehicle: saline with Tween-80 89 % of control

Cn1cccc1/C=N/N1CC(=O)N(c2cccc(C(F)(F)F)c2)CC1=O
inactive: dose: 6.25 mg/kg/injection, schedule: Q01DX005 (ip), vehicle: saline with Tween-80 98 % of control | dose: 12.5 mg/kg/injection, schedule: Q01DX005 (ip), vehicle: saline with Tween-80 100 % of control

COc1cc(C2=N/C(=C/c3cccs3)C(=O)O2)cc(OC)c1OC
inactive: [7] 98 % of control | [8] 108 % of control | [9] 106 % of control

CN(C)c1ccc(/C=C/C=N/NC(=S)NC23CC4CC(CC(C4)C2)C3)cc1
inactive: [3] 89 % of control | [4] 86 % of control

Cc1ccc(C)c(NC(=O)Nc2ccc(C(=O)O)cc2)c1
inactive: [1] 105 % of control | [2] 105 % of control | [6] 102 % of control

CN1C(=O)NC(c2ccc(Cl)cc2)(c2ccc(Cl)cc2)C1=O
inactive: dose: 5.0 mg/kg/injection, schedule: Q04DX003 (ip), vehicle: other 105 % of control | dose: 10.0 mg/kg/injection, schedule: Q04DX003 (ip), vehicle: other 104 % of control | dose: 20.0 mg/kg/injection, schedule: Q04DX003 (ip), vehicle: other 107 % of control | dose: 25.0 mg/kg/injection, schedule: Q04DX003 (ip), vehicle: other 101 % of control | dose: 40.0 mg/kg/injection, schedule: Q04DX003 (ip), vehicle: other 118 % of control | dose: 50.0 mg/kg/injection, schedule: Q04DX003 (ip), vehicle: other 119 % of control

CCc1cccc(C)c1NC(=O)/C(Cl)=C(\Cl)C(=O)O
inactive: [3] 104 % of control | [4] 106 % of control

CC(=O)Nc1ccc(SSc2ccc(NC(C)=O)s2)s1
inactive: dose: 50.0 mg/kg/injection, schedule: Q01DX001 (ip), vehicle: saline with Tween-80 86 % of control | dose: 200.0 mg/kg/injection, schedule: Q01DX001 (ip), vehicle: saline with Tween-80 90 % of control | dose: 400.0 mg/kg/injection, schedule: Q01DX001 (ip), vehicle: saline with Tween-80 97 % of control

COCC1(C)CCCC2(C)C3=C(CCC(OC(C)=O)C3)CCC12 (configuration not stated)
inactive: dose: 100.0 mg/kg/injection, schedule: Q04DX003 (ip), vehicle: suspension in saline 100 % of control | dose: 200.0 mg/kg/injection, schedule: Q04DX003 (ip), vehicle: suspension in saline 102 % of control | dose: 400.0 mg/kg/injection, schedule: Q04DX003 (ip), vehicle: suspension in saline 102 % of control

O=C1CC2OCCC3CN4CCC56c7ccccc7N1C5C2C3CC46 (configuration not stated)
inactive: dose: 7.5 mg/kg/injection, schedule: Q01DX005 (ip), vehicle: Klucel (hydroxypropylcellulose) (HPC) 101 % of control | dose: 15.0 mg/kg/injection, schedule: Q01DX005 (ip), vehicle: Klucel (hydroxypropylcellulose) (HPC) 98 % of control | dose: 30.0 mg/kg/injection, schedule: Q01DX005 (ip), vehicle: Klucel (hydroxypropylcellulose) (HPC) 98 % of control

O=C(O)CN(CCN(CC(=O)O)CC(=O)O)CCN(CC(=O)O)CC(=O)O
inactive: dose: 50.0 mg/kg/injection, schedule: Q01DX005 (ip), vehicle: Klucel (hydroxypropylcellulose) (HPC) 103 % of control | dose: 100.0 mg/kg/injection, schedule: Q01DX005 (ip), vehicle: Klucel (hydroxypropylcellulose) (HPC) 108 % of control | [2] 91 % of control | dose: 200.0 mg/kg/injection, schedule: Q01DX005 (ip), vehicle: Klucel (hydroxypropylcellulose) (HPC) 103 % of control | [6] 94 % of control

— PubChem BioAssay AID330 (DTP/NCI, 2004)
